From article PMC12386561, “Broad-Spectrum Antimicrobial Potential of the γ-Core Motif Peptides of Filipendula ulmaria for Practical Applications in Agriculture and Medicine” (International Journal of Molecular Sciences, 2025)
Residues, ends and D or L forms follow the SMILES beside them.

What was measured:
[1] = test system: Pectobacterium carotovorum subsp. carotovorum VKM B-1247; assay: Antimicrobial activity assay against bacteria, growth inhibition in microtiter plates; format: cell-based; conditions: modified YPD-P medium, peptide 0.5–300 µM, 30 °C, 24 h, absorbance 594 nm, triplicate, mean ± SD
Description: (§1) The IC50 values are presented as mean ± standard deviations.

[2] = test system: Candida albicans VKM Y-2994; format: cell-based; conditions: YPD-P medium, peptide 0.5–300 µM, 30 °C, 24 h, absorbance 594 nm, triplicate, mean ± SD; read-out: IC50 against C. albicans
Description: as §1

[3] = test system: Pseudomonas savastanoi pv. savastanoi VKM B-1546; format: cell-based; conditions: medium without glucose, peptide 0.5–300 µM, 30 °C, 24 h, absorbance 594 nm, triplicate, mean ± SD; for IC50: read-out: IC50 against P. savastanoi
Description: as §1

[4] = test system: F. verticillioides VKM F-670; format: cell-based, Fusarium verticillioides; conditions: spores in half-strength potato dextrose broth, peptide 5–300 µM, 48 h, absorbance 595 nm, triplicate, mean ± SD; for IC50: read-out: IC50 against F. verticillioides
Description: (§2) The inhibitory activity of peptides on spore germination and growth of fungi was tested against nine fungal strains from the VKM: Fusarium culmorum VKM F-2303, F. oxysporum VKM F-137, F. solani VKM F-142, F. verticillioides VKM F-670, Aspergillus unguis VKM F-1754, Bipolaris sorokiniana VKM F-4006, Botrytis cinerea VKM F-4549, Rhizoctonia solani VKM F-895, and Penicillium gladioli VKM F-2088. The fungi were cultivated on potato dextrose agar at 25 °C for 7–8 days, while B. sorokiniana and B. cinerea were grown for 10–12 days. Spores were obtained by washing from the surface of the mycelia with sterile distilled water and filtered through a sterile filter. The filtrate was centrifuged at 6000 rpm for 15 min. The precipitate was washed three times with sterile distilled water and centrifuged at 10,000 rpm for 2 min. A total of 1 mL of sterile aqueous 20% glycerol solution was added to the spores, and spores were stored at −20 °C.
(§3) The antifungal effect of peptides was determined in microtiter plates by measuring the absorbance of the spore suspension in the presence of the peptide relative to the control. In the wells of a plate, 90 µL of spore suspension in half-strength potato dextrose broth at a concentration of 2000–3000 spores in 100 µL was mixed with 10 µL of aqueous solutions of peptides to obtain final concentrations of 5–300 µM. Each experiment was carried out in triplicate. The concentration of spores in the suspension was determined in a Goryaev chamber. The absorbance was recorded at 595 nm on a FilterMax F5 Multi-Mode Microplate Reader (Molecular Devices, San Jose, CA, USA) after 48 h of incubation. The antimicrobial activity was expressed in IC50 values.

[5] = test system: Cryptococcus neoformans VKM Y-2755; conditions: read-out: IC50 against C. neoformans; YPD-P medium, peptide 0.5–300 µM, 30 °C, 24 h, absorbance 594 nm, triplicate, mean ± SD
[6] = test system: Fusarium culmorum VKM F-2303; assay: Antifungal activity assay, spore germination and growth; format: cell-based; conditions: spores in half-strength potato dextrose broth, peptide 5–300 µM, 48 h, absorbance 595 nm, triplicate, mean ± SD; for IC50: read-out: IC50 against F. culmorum
Description: as §2, §3

[7] = test system: Bipolaris sorokiniana VKM F-4006; assay: as above; format: cell-based; conditions: spores in half-strength potato dextrose broth, peptide 5–300 µM, 48 h, absorbance 595 nm, triplicate, mean ± SD; read-out: IC50 against B. sorokiniana
Description: as §2, §3

[8] = test system: Clavibacter michiganensis subsp. michiganensis VKM Ac-1403; assay: Antimicrobial activity assay against bacteria, growth inhibition in microtiter plates; format: cell-based; conditions: modified YPD-P medium, peptide 0.5–300 µM, 30 °C, 24 h, absorbance 594 nm, triplicate, mean ± SD
Description: as §1

F. oxysporum VKM F-137 = format: cell-based, Fusarium oxysporum; conditions: spores in half-strength potato dextrose broth, peptide 5–300 µM, 48 h, absorbance 595 nm, triplicate, mean ± SD; for IC50: read-out: IC50 against F. oxysporum
Description: as §2, §3

F. solani VKM F-142 = format: cell-based, Fusarium solani; conditions: spores in half-strength potato dextrose broth, peptide 5–300 µM, 48 h, absorbance 595 nm, triplicate, mean ± SD; for IC50: read-out: IC50 against F. solani
Description: as §2, §3

[9] = test system: Penicillium gladioli VKM F-2088; format: cell-based; conditions: spores in half-strength potato dextrose broth, peptide 5–300 µM, 48 h, absorbance 595 nm, triplicate, mean ± SD; read-out: IC50 against P. gladioli
Description: as §2, §3

[10] = test system: Botrytis cinerea VKM F-4549; format: cell-based; conditions: spores in half-strength potato dextrose broth, peptide 5–300 µM, 48 h, absorbance 595 nm, triplicate, mean ± SD; read-out: IC50 against B. cinerea
Description: as §2, §3

[11] = test system: Aspergillus unguis VKM F-1754; format: cell-based; conditions: spores in half-strength potato dextrose broth, peptide 5–300 µM, 48 h, absorbance 595 nm, triplicate, mean ± SD; read-out: IC50 against A. unguis
Description: as §2, §3

C. tropicalis VKM Y-2771 = format: cell-based, Candida tropicalis; conditions: YPD-P medium, peptide 0.5–300 µM, 30 °C, 24 h, absorbance 594 nm, triplicate, mean ± SD; read-out: IC50 against C. tropicalis
Description: as §1

[12] = test system: Rhizoctonia solani VKM F-895; assay: Antifungal activity assay, spore germination and growth; format: cell-based; conditions: spores in half-strength potato dextrose broth, peptide 5–300 µM, 48 h, absorbance 595 nm, triplicate, mean ± SD; read-out: IC50 against R. solani
Description: as §2, §3

SMILES	IC50 [1] [µM]	IC50 [2] [µM]	IC50 [3] [µM]	IC50 [6] [µM]	IC50 [7] [µM]	IC50 [8] [µM]	IC50 (F. oxysporum VKM F-137) [µM]	IC50 (F. solani VKM F-142) [µM]	IC50 [10] [µM]	other results
CC[C@H](C)[C@H](NC(=O)[C@H](Cc1c[nH]cn1)NC(=O)[C@H](CO)NC(=O)[C@H](CS)NC(=O)[C@H](CCCCN)NC(=O)CN)C(=O)N[C@@H](CC(C)C)C(=O)N[C@@H](CCCNC(=N)N)C(=O)N[C@@H](CCCNC(=N)N)C(=O)N[C@@H](CS)C(=O)N[C@@H](Cc1ccccc1)C(=O)N[C@@H](CS)C(=O)N[C@H](C(=O)N[C@H](C(=O)N[C@@H](Cc1c[nH]cn1)C(=O)N[C@@H](CS)C(=O)O)[C@@H](C)O)[C@@H](C)O [FuD0] (H-GKCSHILRRCFCTTHC-OH; N-terminus and C-terminus assumed)	> 300	–	–	–	–	–	–	–	–	–
CC[C@H](C)[C@H](NC(=O)[C@H](CS)NC(=O)[C@H](C)NC(=O)CN)C(=O)N[C@@H](C)C(=O)N[C@@H](CCCNC(=N)N)C(=O)N[C@@H](CS)C(=O)N[C@@H](CCCNC(=N)N)C(=O)N[C@@H](CC(C)C)C(=O)N[C@@H](CO)C(=O)N[C@@H](CO)C(=O)N[C@@H](CCCNC(=N)N)C(=O)N1CCC[C@H]1C(=O)N[C@@H](CC(N)=O)C(=O)N[C@@H](CC(C)C)C(=O)N[C@@H](CS)C(=O)N[C@@H](CCCCN)C(=O)N[C@@H](CCCNC(=N)N)C(=O)O [γ48-67FuSN6] (H-GACIARCRLSSRPNLCKR-OH; N-terminus and C-terminus assumed)	> 300	> 300	97.2 ± 0.2	19.3 ± 1.2	46.2 ± 3.2	34.7 ± 0.5	15.8 ± 0.6	51.4 ± 0.9	154 ± 4.4	IC50 [4]: 38 ± 4.6 µM; IC50 [5]: 5.5 ± 0.2 µM; IC50 [9]: 93.8 ± 4.2 µM; IC50 [11]: 2.1 µM; IC50 (C. tropicalis VKM Y-2771): 1.7 ± 0.6 µM
CC(C)C[C@H](NC(=O)[C@H](CCCCN)NC(=O)[C@H](CS)NC(=O)[C@H](CCCNC(=N)N)NC(=O)CN)C(=O)N[C@@H](CO)C(=O)N[C@@H](CO)C(=O)N[C@@H](CCCNC(=N)N)C(=O)N1CCC[C@H]1C(=O)N[C@@H](CCCCN)C(=O)N[C@@H](CC(C)C)C(=O)N[C@@H](CS)C(=O)N[C@@H](CCCCN)C(=O)N[C@@H](CCCNC(=N)N)C(=O)O [γ54-69FuSN5] (H-GRCKLSSRPKLCKR-OH; N-terminus and C-terminus assumed)	> 300	–	–	–	> 300	–	–	–	> 300	IC50 [12]: > 300 µM
CC[C@H](C)[C@H](NC(=O)[C@H](Cc1c[nH]cn1)NC(=O)[C@H](CO)NC(=O)[C@H](CS)NC(=O)[C@H](CCCCN)NC(=O)CN)C(=O)N[C@@H](CC(C)C)C(=O)N[C@@H](CCCNC(=N)N)C(=O)N[C@@H](CCCNC(=N)N)C(=O)N[C@@H](CS)C(=O)N[C@@H](CCCNC(=N)N)C(=O)N[C@@H](CS)C(=O)N[C@@H](CO)C(=O)N[C@@H](CCCCN)C(=O)N[C@@H](CO)C(=O)N[C@@H](CS)C(=O)O [γ59-74FuDEFL1-1] (H-GKCSHILRRCRCSKSC-OH; N-terminus and C-terminus assumed)	> 300	–	–	–	–	–	–	–	–	–
CC[C@H](C)[C@H](NC(=O)[C@H](Cc1c[nH]cn1)NC(=O)[C@H](CO)NC(=O)[C@H](CS)NC(=O)[C@H](CCCCN)NC(=O)CN)C(=O)N[C@@H](CC(C)C)C(=O)N[C@@H](CCCNC(=N)N)C(=O)N[C@@H](CCCNC(=N)N)C(=O)N[C@@H](CS)C(=O)N[C@@H](CCC(N)=O)C(=O)N[C@@H](CS)C(=O)N[C@@H](CC(C)C)C(=O)N[C@@H](CCCCN)C(=O)N[C@@H](CO)C(=O)N[C@@H](CS)C(=O)O [γ61-76FuDEFL1-7] (H-GKCSHILRRCQCLKSC-OH; N-terminus and C-terminus assumed)	> 300	–	–	–	–	–	–	–	–	–
CSCC[C@H](NC(=O)[C@H](CC(=O)O)NC(=O)[C@@H](NC(=O)[C@H](Cc1ccc(O)cc1)NC(=O)[C@H](CS)NC(=O)[C@H](CO)NC(=O)CN)[C@@H](C)O)C(=O)N[C@H](C(=O)N[C@H](C(=O)N[C@@H](Cc1c[nH]cn1)C(=O)NCC(=O)N[C@@H](CC(N)=O)C(=O)N[C@@H](CCCNC(=N)N)C(=O)N[C@@H](CC(C)C)C(=O)N[C@@H](CCCCN)C(=O)N[C@@H](CS)C(=O)N1CCC[C@H]1C(=O)O)[C@@H](C)O)[C@@H](C)O [γ88-104FuSN3] (H-GSCYTDMTTHGNRLKCP-OH; N-terminus and C-terminus assumed)	> 300	> 300	> 300	> 300	–	> 300	> 300	> 300	–	IC50 against P. savastanoi [3]: failed to inhibit the growth; IC50 against F. verticillioides [4]: very low activity; IC50 against F. culmorum [6]: inactive; IC50 against P. carotovorum [1]: failed to inhibit the growth; IC50 against C. michiganensis [8]: failed to inhibit the growth; IC50 against F. oxysporum (F. oxysporum VKM F-137): inactive; IC50 against F. solani (F. solani VKM F-142): inactive
CC(C)C[C@H](NC(=O)CN)C(=O)N[C@@H](CS)C(=O)N[C@@H](CCCCN)C(=O)N[C@@H](Cc1ccc(O)cc1)C(=O)N[C@@H](CCCNC(=N)N)C(=O)N[C@@H](CS)C(=O)N[C@@H](CO)C(=O)N[C@@H](CC(C)C)C(=O)N[C@@H](Cc1c[nH]cn1)C(=O)N[C@@H](CO)C(=O)N[C@@H](CCCNC(=N)N)C(=O)N1CCC[C@H]1C(=O)N[C@@H](CC(N)=O)C(=O)N[C@H](C(=O)N[C@@H](CS)C(=O)N[C@@H](Cc1ccccc1)C(=O)N[C@@H](CCCNC(=N)N)C(=O)O)C(C)C [γ89-106SlSN9, reference compound] (H-GLCKYRCSLHSRPNVCFR-OH)	–	214 ± 47.1	127.6 ± 0.9	23.1 ± 4.5	55.1 ± 7	41.9 ± 0.5	34.1 ± 1	50.5 ± 1.4	118 ± 12	IC50 [4]: 32.3 ± 6.5 µM; IC50 [5]: 6.3 ± 3.8 µM; IC50 [12]: 130 ± 2.9 µM; IC50 [9]: 93.6 ± 5.2 µM; IC50 [11]: 3.3 ± 0.2 µM; IC50 (C. tropicalis VKM Y-2771): 6.1 ± 0.1 µM
